Reference: patent US7465582B1, “Nurr-1 induction of a dopaminergic neuronal fate in a neural stem cell or neural progenitor cell in vitro” (Neuro Therapeutics AB, priority 2000, dated 2008)

Tests used:
[1] = test system: Nurr1 over-expressing C17.2 clones; experiment: Treatment of Nurr1 clones with trophic factors, mitogens, cytokines and other agents; TH immunoreactivity; assay type: cell-based, mouse; details: Nurr1 clones without co-culture; factors alone or combined
From the text: C17.2 cells were cotransfected with a CMX-Nurr1 expression vector (Perlmann, T. et al. Genes Dev. 9, 769-782 (1995)) and PGK-puromycin resistance plasmids (Nurr1 clones) or a PGK-puromycin alone (mock clones). For reporter assays, C17.2 parental cells were transfected with the Nurr1 expression vector, the reporter plasmid (NGFIB-binding response element (NBRE) triplet upstream of TK minimal promoter fused to firefly luciferase) and a pRSV-alkaline phosphatase plasmid at a 2:1:2 ratio.
(§1) C17.2 neural stem cells (Snyder, E. Y. et al. Cell 68, 33-51 (1992)) were maintained and passaged as previously described (Snyder, E. Y. et al. Cell 68, 33-51 (1992)). Ventral mesencephala from E16 rat embryos were dissected, mechanically dissociated and plated at a final density of 1×10^5 cells/cm^2 on poly-D-lysine coated culture wells in a defined, serum-free medium (N^2, consisting of a 1:1 mixture of F12 and DMEM containing insulin (10 ng/ml), transferrin (100 μg/ml), putrescine (100 μM), progesterone (20 nM), selenium (30 nM) glucose (6 mg/ml), and bovine serum albumin (1 mg/ml)). After 24 hours in vitro, co-cultures were initiated by directly plating 2.5−5×10^4 C17.2-derived cells into the primary cultures; all ages of cultures given use this point as 0 DIV. […] Purified Type 1 astrocytes were obtained from mixed glial cultures derived from various regions of P1 rats according to a standard protocol (McCarthy, K. D. et al. J. Cell Biol. 85, 890-902 (1980)). After replating into 6- or 12-well plates, astrocytes were grown to confluency in serum-containing media and changed to N2 medium. After 3-5 DIV, co-cultures were initiated in fresh N2 as described above. All factors were added once, at the initiation of co-culture (concentrations are noted in the Results and Discussion), with the exception of 5-bromodeoxyuridine (BrdU), which was added 4-6 hours prior to fixation. Cultures were maintained in a humidified 5% CO2, 95% air incubator at 37 C and fixed after given time periods with 4% paraformaldehyde for 45 minutes for immunocytochemical analysis.
Fixed cultures were incubated with one of the following antibodies, diluted appropriately in phosphate-buffered saline (PBS) containing 1% bovine serum albumin and 0.3% Triton-X 100: mouse anti-BrdU, 1:50 (DAKO, Denmark), mouse anti-β-tubulin, Type III (TuJ1), 1:250 (Sigma), mouse anti-TH, 1:1000 (Incstar, USA), rabbit anti-β-galactosidase, 1:250 (Cappel, USA) rabbit anti-GFAP, 1:500 (DAKO, Denmark), rabbit anti-AHD-2, 1:4000. Incubations were either carried out at 4° C. overnight, or at room temperature for 1 hour. […] After washing, cultures were incubated for 1-3 hr with appropriate secondary antibodies (biotinylated horse-anti-mouse IgG or goat-anti-rabbit IgG, Vector, USA), 1:100, in the same dilution buffer. Immunostaining was visualized with the Vector Laboratory ABC immunoperoxidase kit, using either AEC (red) or SG (grey) substrates. […] Quantitative immunocytochemical data represent means and standard errors from 100-500 cells counted in each of 3-6 separate wells from 2-4 experiments. For quantitation of TH expression in co-cultures of primary and C-17.2-derived cells, TH was visualized with the brightfield AEC substrate, while β-gal was assessed using FITC, thus all data expressed as “% TH+” represents the number of TH+/β-gal+divided by total β-gal positive cells.

[2] = test system: Nurr1-C17.2 clone 42; experiment: Co-culture of Nurr1-C17.2 clone 42 with primary E16 ventral mesencephalic cells; TH expression; assay type: cell-based, mouse; details: clone 42 with primary VM cells
Description: (§2) C17.2 neural stem cells (Snyder, E. Y. et al. Cell 68, 33-51 (1992)) were maintained and passaged as previously described (Snyder, E. Y. et al. Cell 68, 33-51 (1992)). Ventral mesencephala from E16 rat embryos were dissected, mechanically dissociated and plated at a final density of 1×10^5 cells/cm^2 on poly-D-lysine coated culture wells in a defined, serum-free medium (N^2, consisting of a 1:1 mixture of F12 and DMEM containing insulin (10 ng/ml), transferrin (100 μg/ml), putrescine (100 μM), progesterone (20 nM), selenium (30 nM) glucose (6 mg/ml), and bovine serum albumin (1 mg/ml)). After 24 hours in vitro, co-cultures were initiated by directly plating 2.5−5×10^4 C17.2-derived cells into the primary cultures; all ages of cultures given use this point as 0 DIV. […]
(§3) Fixed cultures were incubated with one of the following antibodies, diluted appropriately in phosphate-buffered saline (PBS) containing 1% bovine serum albumin and 0.3% Triton-X 100: mouse anti-BrdU, 1:50 (DAKO, Denmark), mouse anti-β-tubulin, Type III (TuJ1), 1:250 (Sigma), mouse anti-TH, 1:1000 (Incstar, USA), rabbit anti-β-galactosidase, 1:250 (Cappel, USA) rabbit anti-GFAP, 1:500 (DAKO, Denmark), rabbit anti-AHD-2, 1:4000. […] Quantitative immunocytochemical data represent means and standard errors from 100-500 cells counted in each of 3-6 separate wells from 2-4 experiments. […]

[3] = test system: C17.2 clonal lines; experiment: Baseline proliferation of clonal lines after extended factor treatment in serum-free medium; assay type: cell-based, mouse; details: after extended treatment with the factor in serum-free medium; most clonal lines
Description: as §1, with “Cultures were maintained in a humidified 5% CO2, 95% air incubator at 37 C and fixed after given time periods with 4% paraformaldehyde for 45 minutes for immunocytochemical analysis.” left out

[4] = test system: C17.2 cells; details: Kitchens et al. 1994; cited from earlier work
[5] = test system: parental C17.2 cells; experiment: Co-culture of parental C17.2 cells with primary E16 ventral mesencephalic cells; TH expression; assay type: cell-based, mouse; details: parental C17.2 cells in co-culture; SR11237 to 1 μM, bFGF to 10 ng/ml
Description: as §2, §3

[6] = test system: RXR retinoid receptors; details: Lehmann et al. 1992; cited from earlier work
[7] = test system: Nurr1 clones; experiment: bFGF pretreatment of Nurr1 clones before co-culture with primary ventral mesencephalic cultures; BrdU labeling and TH expression; assay type: cell-based, mouse; details: bFGF pretreatment 5 DIV
Description: as §2, §3

[8] = test system: Nurr1-c42-derived dopaminergic neurons; experiment: Response of TH positive c42 cells in co-culture to neurotrophic factors; assay type: cell-based, mouse; details: 9 DIV, after SR11237 and bFGF induction; compared to N2 control; NT-3 30 ng/ml
Description: as §2, §3

EGF: epidermal growth factor, mitogen (NSDSECPLSHDGYCLHDGVCMYIEALDKYACNCVVGYIGERCQYRDLKWWELR; Epidermal growth factor; UniProt P01133 971-1023, looked up)
induction of TH expression [1]: None of these factors induced TH expression in any of the clones | effect on TH expression in co-culture (in words) [2]: effects of bFGF could be substituted by EGF | baseline proliferation after passage into SFM alone [3]: remained unexpectedly elevated | mitogenic effect [4]: directly mitogenic

NCCc1ccc(O)c(O)c1 [dopamine]
induction of TH expression [1]: None of these factors induced TH expression in any of the clones

CC1(C)CCC(C)(C)c2cc(C3(c4ccc(C(=O)O)cc4)OCCO3)ccc21 [SR11237, reference compound]
induction of TH expression [5]: did not induce expression of TH | stimulation of RXR retinoid receptors [6]: specifically stimulates RXR retinoid receptors

bFGF: basic fibroblast growth factor, mitogen
induction of TH expression [1]: None of these factors induced TH expression in any of the clones | induction of TH expression [5]: did not induce expression of TH | % TH+ cells after co-culture ([7]; co-culture 9 DIV, highest value, clone 42): ≤ 45% | BrdU labeling of pretreated Nurr1 clones ([7]; 24 hours after passage into co-culture, versus cells split directly out of serum-containing medium): increased | baseline proliferation after passage into SFM alone [3]: remained unexpectedly elevated | number of TH+ cells in the culture [8]: dramatically increased the number of TH+ cells | mitogenic effect [4]: directly mitogenic

CC1=C(/C=C/C(C)=C/C=C/C(C)=C/C(=O)O)C(C)(C)CCC1 [all-trans retinoic acid, reference compound]
effect on TH expression in co-culture (in words) [2]: without effect

sonic hedgehog
induction of TH expression [1]: None of these factors induced TH expression in any of the clones

insulin-like growth factor
induction of TH expression [1]: None of these factors induced TH expression in any of the clones
